Experiments:
[1] = target: T1, P-selectin (Homo sapiens, UniProt P16109); assay: Tested for its ability to inhibit HL60 cell adhesion to P-selectin-IgG fusion proteins; format: cell-based, HL-60
T1 sequence (P16109 whole entry): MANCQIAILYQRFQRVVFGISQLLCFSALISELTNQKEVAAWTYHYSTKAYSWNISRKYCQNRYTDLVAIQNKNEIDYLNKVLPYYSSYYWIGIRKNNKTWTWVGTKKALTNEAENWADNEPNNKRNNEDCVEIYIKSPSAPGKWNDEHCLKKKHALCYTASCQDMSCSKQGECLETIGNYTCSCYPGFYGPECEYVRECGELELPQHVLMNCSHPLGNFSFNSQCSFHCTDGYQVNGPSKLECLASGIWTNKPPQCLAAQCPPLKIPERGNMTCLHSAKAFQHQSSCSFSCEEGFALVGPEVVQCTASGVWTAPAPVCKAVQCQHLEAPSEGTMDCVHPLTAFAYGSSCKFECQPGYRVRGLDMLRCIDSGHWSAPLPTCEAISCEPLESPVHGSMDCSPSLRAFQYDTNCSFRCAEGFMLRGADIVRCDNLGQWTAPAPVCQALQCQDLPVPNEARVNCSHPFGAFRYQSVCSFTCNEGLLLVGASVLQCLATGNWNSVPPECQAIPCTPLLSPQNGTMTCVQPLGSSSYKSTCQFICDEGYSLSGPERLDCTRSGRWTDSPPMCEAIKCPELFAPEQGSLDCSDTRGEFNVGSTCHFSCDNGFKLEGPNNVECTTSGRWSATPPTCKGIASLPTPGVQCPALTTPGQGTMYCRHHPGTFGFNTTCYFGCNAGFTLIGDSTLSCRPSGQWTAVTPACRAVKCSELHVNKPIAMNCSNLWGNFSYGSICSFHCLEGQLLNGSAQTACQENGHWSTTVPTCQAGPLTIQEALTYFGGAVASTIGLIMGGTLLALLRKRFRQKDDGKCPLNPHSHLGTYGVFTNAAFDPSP

[2] = target: T2, E-selectin (Homo sapiens, UniProt P16581); assay: Tested for its ability to inhibit HL60 cell adhesion to Selectin E IgG fusion proteins; format: cell-based, HL-60
T2 sequence (P16581 whole entry): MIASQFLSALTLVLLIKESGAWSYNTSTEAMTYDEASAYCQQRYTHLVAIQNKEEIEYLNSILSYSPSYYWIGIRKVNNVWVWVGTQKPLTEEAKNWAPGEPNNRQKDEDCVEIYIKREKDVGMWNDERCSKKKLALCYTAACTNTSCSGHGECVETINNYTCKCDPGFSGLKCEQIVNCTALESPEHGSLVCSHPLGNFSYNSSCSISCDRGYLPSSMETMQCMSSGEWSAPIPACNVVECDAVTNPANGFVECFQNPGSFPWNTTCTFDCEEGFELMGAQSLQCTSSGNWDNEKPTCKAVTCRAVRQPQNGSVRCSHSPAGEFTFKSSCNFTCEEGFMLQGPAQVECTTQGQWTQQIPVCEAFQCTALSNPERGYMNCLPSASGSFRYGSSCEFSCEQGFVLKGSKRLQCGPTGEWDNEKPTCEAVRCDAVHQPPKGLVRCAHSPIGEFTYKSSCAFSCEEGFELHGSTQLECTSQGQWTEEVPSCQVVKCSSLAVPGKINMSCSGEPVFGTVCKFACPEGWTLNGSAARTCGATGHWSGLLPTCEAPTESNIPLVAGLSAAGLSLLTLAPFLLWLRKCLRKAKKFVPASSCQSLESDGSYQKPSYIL

| SMILES | IC50 [1] [µM] | IC50 [2] [µM] | IC50 ([1]; hl-60) [µM] |
| --- | --- | --- | --- |
| C[C@@H]1O[C@@H](O[C@@H]2[C@H](N)[C@H](OCCCCCCN)O[C@@H](CO)[C@H]2O[C@@H]2O[C@@H](CO)[C@H](O)[C@H](O[C@]3(C(=O)O)C[C@@H](O)[C@@H](N)[C@H]([C@H](O)[C@H](O)CO)O3)[C@@H]2O)[C@@H](O)[C@@H](O)[C@@H]1O | 160 | 270 | – |
| CC(=O)N[C@@H]1[C@H](OCCCCCCN)O[C@@H](CO)[C@@H](O[C@@H]2O[C@@H](CO)[C@H](O)[C@H](O[C@]3(C(=O)O)C[C@@H](O)[C@@H](NC(C)=O)[C@H]([C@H](O)[C@H](O)CO)O3)[C@@H]2O)[C@@H]1O[C@@H]1O[C@@H](C)[C@@H](O)[C@H](O)[C@@H]1O | – | – | 2000 |
| CC(=O)N[C@@H]1[C@H](OCCCCCCN)O[C@@H](CO)[C@@H](O[C@@H]2O[C@@H](CO)[C@H](O)[C@H](O[C@]3(C(=O)O)C[C@@H](O)[C@@H](N)[C@H]([C@H](O)[C@H](O)CO)O3)[C@@H]2O)[C@@H]1O[C@@H]1O[C@@H](C)[C@@H](O)[C@H](O)[C@@H]1O | 1000 | 900 | – |
| CC(=O)N[C@@H]1[C@H](OCCCCCCN)O[C@@H](CO)[C@@H](O[C@@H]2O[C@@H](CO)[C@H](O)[C@H](O[C@]3(C(=O)O)C[C@@H](O)C[C@H]([C@H](O)[C@H](O)CO)O3)[C@@H]2O)[C@@H]1O[C@@H]1O[C@@H](C)[C@@H](O)[C@H](O)[C@@H]1O | 700 | 700 | – |

From ChEMBL document CHEMBL1149948, “Chemical and enzymatic synthesis of high-affinity selectin ligands” (Bioorg Med Chem Lett, 1997)
